Source: PMC12775434, “Ultra-large virtual screening unveils potent agonists of the neuromodulatory orphan receptor GPR139” (Nature Communications, 2025)
Several values for one entry are separate records, joined by “and”; a condition that tells them apart may be missing. Equal entries are not always repeated.

How the values were obtained:
Type in all cases: cell-based
GPR139 [1] = target: T1, GPR139 (Homo sapiens, UniProt Q6DWJ6); assay: Ca2+ mobilization assay, agonist mode, stable GPR139-CHOk1 cell line; conditions: for activation of GPR139 at three concentrations: 0.1, 1 and 10 µM, activity too low to reliably determine EC50
T1 sequence (Q6DWJ6 1-353): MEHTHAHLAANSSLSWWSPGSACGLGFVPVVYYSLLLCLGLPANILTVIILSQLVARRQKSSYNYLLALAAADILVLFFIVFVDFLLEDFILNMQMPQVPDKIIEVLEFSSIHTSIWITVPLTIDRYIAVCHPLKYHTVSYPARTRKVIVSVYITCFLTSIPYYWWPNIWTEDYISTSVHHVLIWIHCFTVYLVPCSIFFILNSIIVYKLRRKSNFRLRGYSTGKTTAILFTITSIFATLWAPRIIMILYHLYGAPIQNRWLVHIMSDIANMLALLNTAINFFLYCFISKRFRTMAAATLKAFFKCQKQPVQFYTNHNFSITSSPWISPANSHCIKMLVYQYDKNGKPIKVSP
Method in brief: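 Agonist activity of compounds is assessed in stably transfected CHO-K1 cells using the calcium dye Fluo-4 at 37 °C in HEPES-buffered HBSS (pH 7.4). Efficacy is expressed relative to the reference agonist Lundbeck Cmp 1a, set as 100%.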

GPR139 [2] = target: T1, GPR139; assay: Ca2+ mobilization assay, antagonist mode (EC80 800 nM Lundbeck Cmp 1a after 20 min preincubation), GPR139-CHOk1; conditions: individual replicates (Supplementary Figure 1)
Method in brief: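 Fluo-4-loaded GPR139-CHOk1 cells in HEPES-buffered HBSS (pH 7.4, 2.5 mM probenecid) given test compounds at 10 µM, then after 20 min challenged with 800 nM Lundbeck Cmp 1a (EC80). Calcium fluorescence read at 37 °C, 485/525 nm.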

[3] = target: T2, human muscarinic acetylcholine M1 receptor (M1R) (Homo sapiens, UniProt P11229); assay: Ca2+ mobilization counter-screen in M1R-CHOk1 cells; conditions: individual replicates (Supplementary Figure 2)
T2 sequence (P11229 1-460): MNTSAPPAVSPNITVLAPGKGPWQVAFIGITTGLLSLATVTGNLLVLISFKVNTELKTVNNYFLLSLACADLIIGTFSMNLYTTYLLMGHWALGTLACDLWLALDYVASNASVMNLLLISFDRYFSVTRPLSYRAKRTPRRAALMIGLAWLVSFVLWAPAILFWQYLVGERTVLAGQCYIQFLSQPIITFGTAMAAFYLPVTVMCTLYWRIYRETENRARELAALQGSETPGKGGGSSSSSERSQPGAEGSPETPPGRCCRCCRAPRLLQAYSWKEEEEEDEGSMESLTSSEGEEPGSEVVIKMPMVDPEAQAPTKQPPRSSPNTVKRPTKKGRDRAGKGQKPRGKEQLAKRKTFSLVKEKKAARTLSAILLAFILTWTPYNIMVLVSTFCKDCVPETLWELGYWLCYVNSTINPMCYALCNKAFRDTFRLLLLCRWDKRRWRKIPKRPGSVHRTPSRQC
Method in brief: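 M1R-CHOk1 cells seeded at 30,000/well for 20–24 h were loaded with 2 µM Fluo-4 AM for 1 h at 37 °C in HEPES-buffered HBSS (pH 7.4, 2.5 mM probenecid). Compounds were added after baseline reads, with DMSO at most 0.3% final. Calcium mobilization was read at 37 °C, excitation 485/emission 525 nm.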

[4] = 0.1 µM, individual replicates (Supplementary Figure 3)
[5] = 1 µM, individual replicates (Supplementary Figure 3)
[6] = 10 µM, individual replicates (Supplementary Figure 3)
[7] = Agonist mode, individual replicates (Supplementary Figure 1)
[8] = primary screen, 10 µM compound, agonist mode, three columns = independent experiments

Row | SMILES | Ca2+ signal (% of Cmp 1a) (GPR139 [1]; [4]) | Ca2+ signal (% of Cmp 1a) (GPR139 [1]; [5]) | Ca2+ signal (% of Cmp 1a) (GPR139 [1]; [6]) | activation of GPR139 at three concentrations (GPR139 [1]) | Ca2+ signal (% of Cmp 1a) (GPR139 [1]; [7]) | Ca2+ signal (% of Cmp 1a) (GPR139 [1]; [8]) | Ca2+ signal (% of Cmp 1a) (GPR139 [2]) | Ca2+ signal (% of Carbachol) [3]
1 | O=C(NCc1ccc(Cl)o1)N1CCCc2ccccc2C1 [Compound 7, ClC1=CC=C(CNC(=O)N2CCCC=3C=CC=CC3C2)O1] | 16.2 % of Cmp 1a and 6.0 % of Cmp 1a | 2.4 % of Cmp 1a and 4.1 % of Cmp 1a | 22.7 % of Cmp 1a and 24.5 % of Cmp 1a | concentration-dependent activation of GPR139 | 44 % of Cmp 1a and 39 % of Cmp 1a and 33 % of Cmp 1a | 44 % of Cmp 1a and 39 % of Cmp 1a and 33 % of Cmp 1a | 37.7665 % of Cmp 1a and 52.8581 % of Cmp 1a and 40.8806 % of Cmp 1a | -10 % of Carbachol and -18 % of Carbachol
2 | C[C@H](NC(=O)c1ccc(Cn2cc(Cl)cn2)o1)c1ccccc1 [Compound 8, C[C@H](NC(=O)C1=CC=C(CN2C=C(Cl)C=N2)O1)C=3C=CC=CC3] | -2.0 % of Cmp 1a and -2.7 % of Cmp 1a | 3.0 % of Cmp 1a and 3.4 % of Cmp 1a | 24.4 % of Cmp 1a and 22.7 % of Cmp 1a | – | 47 % of Cmp 1a and 45 % of Cmp 1a and 51 % of Cmp 1a | 47 % of Cmp 1a and 45 % of Cmp 1a and 51 % of Cmp 1a | 48.2832 % of Cmp 1a and 57.355 % of Cmp 1a and 45.2011 % of Cmp 1a | -17 % of Carbachol and 6 % of Carbachol
3 | CN1CC(=O)N(c2cccc(NC(=O)C3Cc4ccccc43)c2)C1=O (stereo not drawn) [Compound 9, CN1CC(=O)N(C1=O)C=2C=CC=C(NC(=O)C3CC=4C=CC=CC34)C2] | -6.9 % of Cmp 1a and -8.5 % of Cmp 1a | -0.2 % of Cmp 1a and -5.2 % of Cmp 1a | 18.7 % of Cmp 1a and 14.1 % of Cmp 1a | – | 25 % of Cmp 1a and 10 % of Cmp 1a and 48 % of Cmp 1a | – | 73.6349 % of Cmp 1a and 73.421 % of Cmp 1a and 97.2374 % of Cmp 1a | -9 % of Carbachol and -19 % of Carbachol
4 | C[C@H](NC(=O)CN(CC1CC1)C(=O)OC(C)(C)C)c1ccccc1 [Compound 10, C[C@H](NC(=O)CN(CC1CC1)C(=O)OC(C)(C)C)C=2C=CC=CC2] | -1.5 % of Cmp 1a and 11.5 % of Cmp 1a | 2.4 % of Cmp 1a and 6.6 % of Cmp 1a | 39.5 % of Cmp 1a and 47.6 % of Cmp 1a | concentration-dependent activation of GPR139 | 58 % of Cmp 1a and 64 % of Cmp 1a and 72 % of Cmp 1a | 58 % of Cmp 1a and 64 % of Cmp 1a and 72 % of Cmp 1a | 34.852 % of Cmp 1a and 42.0733 % of Cmp 1a and 46.5676 % of Cmp 1a | 3.79 % of Carbachol and -10 % of Carbachol
5 | CN(Cc1cc(Cl)cn1C)C(=O)CCC(=O)c1cccs1 [Compound 11, CN(CC1=CC(Cl)=CN1C)C(=O)CCC(=O)C2=CC=CS2] | 1.5 % of Cmp 1a and 12.7 % of Cmp 1a | -6.5 % of Cmp 1a and 1.1 % of Cmp 1a | 13.9 % of Cmp 1a and 12.8 % of Cmp 1a | – | 40 % of Cmp 1a and 30 % of Cmp 1a and 33 % of Cmp 1a | 40 % of Cmp 1a and 30 % of Cmp 1a and 33 % of Cmp 1a | 63.3528 % of Cmp 1a and 60.457 % of Cmp 1a and 64.2066 % of Cmp 1a | -4 % of Carbachol and 17 % of Carbachol
